SMILES strings stand for the structures. Like-named read-outs stand apart in the source and are kept apart here.

Assay [1] deals with A/HuNan-ZhuHui/1222/2010 (H3N2). As to the kind of experiment: CPE reduction assay, HN/1222 (H3N2). The class given is cell-based. Particulars: Influenza A virus.
Assay [2] relates to A/LiaoNing-ZhenXing/1109/2010(H1N1). As to the kind of experiment: CPE reduction assay, LN/1109 (H1N1). The class given is cell-based. Conditions: Influenza A virus.

Regarding `NC12CC3CC(CC(C3)C1)C2` [Amantadine, amantadine, reference compound], the EC50 is more than 200 µM in assay [1] (read-out: EC50) and 0.44 ± 0.14 µM in assay [2] (read-out: EC50).
The matching figures for `CC1(C)CC[C@]2(C(=O)O[C@H]3OC(CO)[C@@H](O)C(O)C3O)C(O)C[C@]3(C)C(=CC[C@@H]4[C@@]5(C)CC[C@H](O)C(C)(C)[C@@H]5CC[C@]43C)[C@@H]2C1` (stereo partly drawn) [Compound Q9, 3β,16α-dihydroxy-olean-12-en-28-oic acid-28-O-(β-D-galactoside)]: 25.6 ± 9.14 µM and 17.8 ± 12.6 µM.
In the same order, the values of `CC1(C)CC[C@@]2(C(=O)N[C@H]3OC(CO)[C@@H](O)C(O)C3O)C(C1)C1=CCC3[C@@]4(C)CC[C@H](O)C(C)(C)C4CC[C@@]3(C)[C@]1(C)C[C@H]2O` (stereo partly drawn) [Compound Y2, 3β,16α-dihydroxy-olean-12-en-28-oic acid-28-N-(β-D-galactoside)] are more than 22.2 µM and more than 22.2 µM.
The matching figures for `CC(=O)OCC1O[C@H](NC(=O)[C@]23CCC(C)(C)CC2C2=CCC4[C@@]5(C)CC[C@H](O)C(C)(C)C5CC[C@@]4(C)[C@]2(C)CC3)C(OC(C)=O)C(OC(C)=O)[C@@H]1OC(C)=O` (stereo partly drawn) [Compound Y5, 3β-hydroxy-olean-12-en-28-oic acid-28-N-(2,3,4,6-tetra-O-acetyl-β-D-galactoside)]: 3.18 ± 0.08 µM and 6.58 ± 1.17 µM.
In the case of `CCOC(=O)C1=C[C@@H](OC(CC)CC)[C@H](NC(C)=O)[C@@H](N)C1` [OSV-P, oseltamivir phosphate, reference compound], the results for the EC50 in assay [1] (read-out: EC50) and in assay [2] (read-out: EC50) were 8.75 ± 4.41 µM and more than 200 µM, respectively.
With `NC(=O)c1ncn([C@@H]2O[C@H](CO)[C@@H](O)[C@H]2O)n1` [RBV, ribavirin, reference compound], the values for the EC50 in assay [1] and in assay [2] were 3.56 ± 0.24 µM and 5.75 ± 0.35 µM, respectively.

The record behind these values is US9920088B2, “Triterpene derivative and its anti-influenza use” (Peking University, priority 2012, dated 2018).
